Test results as given in US9463247B2, “Branched alkyl and cycloalkyl terminated biodegradable lipids for the delivery of active agents” (ALNYLAM PHARMACEUTICALS, INC., priority 2011, dated 2016).

System: Factor VII (FVII)
Assay: In vivo determination of efficacy of lipid formulations: FVII knockdown in mice (Biophen FVII chromogenic assay)
Design: species or system mouse (C57Bl/6)
Conditions: FVII siRNA lipid formulation containing the cationic lipid; i.v. lateral tail vein; female C57Bl/6 mice; serum 24 hours later; dose resulting in a 50% reduction in plasma FVII levels compared to control animals
Procedure: Test formulations were prepared using the following in-line mixing method: […]
Individual and separate stock solutions are prepared—one containing lipid and the other siRNA. Lipid stock containing lipid A, DSPC, cholesterol and PEG lipid is prepared by solubilized in 90% ethanol. The remaining 10% is low pH citrate buffer. The concentration of the lipid stock is 4 mg/mL. The pH of this citrate buffer can range between pH 3-5, depending on the type of fusogenic lipid employed. The siRNA is also solubilized in citrate buffer at a concentration of 4 mg/mL. For small scale, 5 mL of each stock solution is prepared.
Stock solutions are completely clear and lipids must be completely solubilized before combining with siRNA. Therefore stock solutions may be heated to completely solubilize the lipids. The siRNAs used in the process may be unmodified oligonucleotides or modified and may be conjugated with lipophilic moieties such as cholesterol.
The individual stocks are combined by pumping each solution to a T-junction. A dual-head Watson-Marlow pump is used to simultaneously control the start and stop of the two streams. A 1.6 mm polypropylene tubing is further downsized to a 0.8 mm tubing in order to increase the linear flow rate. The polypropylene line (ID=0.8 mm) are attached to either side of a T-junction. The polypropylene T has a linear edge of 1.6 mm for a resultant volume of […]. Each of the large ends (1.6 mm) of polypropylene line is placed into test tubes containing either solubilized lipid stock or solubilized siRNA. After the T-junction a single tubing is placed where the combined stream will emit. The tubing is then extending into a container with 2× volume of PBS. The PBS is rapidly stirring. The flow rate for the pump is at a setting of 300 rpm or 110 mL/min. Ethanol is removed and exchanged for PBS by dialysis. The lipid formulations are then concentrated using centrifugation or diafiltration to an appropriate working concentration.
Test formulations are initially assessed for their FVII knockdown in female 7-9 week old, 15-25 g, female C57Bl/6 mice at 0.1, 0.3, 1.0 and 5.0 mg/kg with 3 mice per treatment group. All studies include animals receiving either phosphate-buffered saline (PBS, Control group) or a benchmark formulation. Formulations are diluted to the appropriate concentration in PBS immediately prior to testing. Mice are weighed and the appropriate dosing volumes calculated (10 μl/g body weight). Test and benchmark formulations as well as PBS (for Control animals) are administered intravenously via the lateral tail vein. Animals are anesthetised 24 hours later with an intraperitoneal injection of Ketamine/Xylazine and 500-700 μl of blood is collected by cardiac puncture into serum separator tubes (BD Microtainer). Blood is centrifuged at 2,000×g for 10 minutes at 15° C. and serum is collected and stored at −70° C. until analysis. Serum samples are thawed at 37° C. for 30 minutes, diluted in PBS and aliquoted into 96-well assay plates. Factor VII levels are assessed using a chromogenic assay (Biophen FVII kit, Hyphen BioMed) according to manufacturer's instructions and absorbance is measured in a microplate reader equipped with a 405 nm wavelength filter. Plasma FVII levels are quantified and ED50s (dose resulting in a 50% reduction in plasma FVII levels compared to control animals) calculated using a standard curve generated from a pooled sample of serum from control animals. Those formulations of interest showing high levels of FVII knockdown (ED50<<0.1 mg/kg) are re-tested in independent studies at a lower dose range to confirm potency and establish ED50 levels.

Structure (SMILES) | ED50 (Mouse FVII)
CCCCC(C)C(=O)OCCCCCCCCCC(CCCCCCCCCOC(=O)C(C)CCCC)OC(=O)CCCN(C)C (centres unmarked) | >0.30 mg/kg
CC(OCCCCCCCCCC(CCCCCCCCCOC(=O)C1CCCCC1)OC(=O)CCCN(C)C)C1CCCCC1 (centres unmarked) | 0.032 mg/kg
CN(C)CCCC(=O)OC(CCCCCCCCC(=O)OCCCC1CCCC1)CCCCCCCCC(=O)OCCCC1CCCC1 | 0.12 mg/kg
CCCCC(CC)C(=O)OCCCCCCCCCC(CCCCCCCCCOC(=O)C(CC)CCCC)OC(=O)CCCN(C)C (centres unmarked) [drawing 162] | 0.088 mg/kg
CCCCCCOC(=O)CCCCCCCCCCCC(CCCCCCCCCCCC(=O)OCCCCCC)OC(=O)CCCN(C)C | 0.013 mg/kg
CCCCCC(CCCC)OC(=O)CCCCCCCCC(CCCCCCCCC(=O)OC(CCCC)CCCCC)OC(=O)CCCN(C)C (centres unmarked) | 0.009 mg/kg
CCCCC(CCCC)OC(=O)CCCCCCCCC(CCCCCCCCC(=O)OC(CCCC)CCCC)OC(=O)CCCN(C)C | 0.010 mg/kg
CCCCC(CC)C(=O)OCCCCCCCCCC(CCCCCCCCCOC(=O)C(CC)CCCC)OC(=O)CCCN(C)C (centres unmarked) [drawing 149] | 0.005 mg/kg
CCCCCC(CC)C(=O)OCCCCCCCCCC(CCCCCCCCCOC(=O)C(CC)CCCCC)OC(=O)CCCN(C)C (centres unmarked) | 0.008 mg/kg
CN(C)CCCC(=O)OC(CCCCCC(=O)OC1CCCC1)CCCCCC(=O)OC1CCCC1 | >0.30 mg/kg
CN(C)CCCC(=O)OC(CCCCCCCCC(=O)OC1CCCCC1)CCCCCCCCC(=O)OC1CCCCC1 | >0.30 mg/kg
CC(C)CC(CC(C)C)OC(=O)CCCCCCCCCCCC(CCCCCCCCCCCC(=O)OC(CC(C)C)CC(C)C)OC(=O)CCCN(C)C | 0.020 mg/kg
CN(C)CCCC(=O)OC(CCCCCCCCCOC(=O)CCC1CCCC1)CCCCCCCCCOC(=O)CCC1CCCC1 | 0.023 mg/kg
CN(C)CCCC(=O)OC(CCCCCCCCC(=O)OC1CCCC1)CCCCCCCCC(=O)OC1CCCC1 | >0.30 mg/kg
CCCCC(CCCC)OC(=O)CCCCCC(CCCCCC(=O)OC(CCCC)CCCC)OC(=O)CCCN(C)C | >0.30 mg/kg
CN(C)CCCC(=O)OC(CCCCCCCCCOC(=O)C1CCCC1)CCCCCCCCCOC(=O)C1CCCC1 | >0.30 mg/kg
CN(C)CCCC(=O)OC(CCCCCC(=O)OC1CCCCC1)CCCCCC(=O)OC1CCCC1 (centres unmarked) | >0.30 mg/kg
